Where two headings read alike, the source gives them in different places.
Test system: rhythmic bladder voiding contractions
Test: Volume-induced rhythmic bladder voiding contractions in anaesthetized rats
Assay type: in vivo
Settings: for AMPLITUDE mm Hg before treatment / FREQUENCY No. contr./15 min before treatment: baseline; for AMPLITUDE mm Hg before treatment / AMPLITUDE mm Hg after treatment: animals with frequency reduction <50%; for AMPLITUDE mm Hg before treatment / FREQUENCY No. contr./15 min before treatment / AMPLITUDE mm Hg after treatment / FREQUENCY No. contr./15 min after treatment: mean±S.E.; for BLADDER CONTRACTIONS Disappearance time: duration of bladder quiescence, mean (S.E. in next cell); for ED (10 min disappearance of contractions) / ED50: Rattus norvegicus, iv; for ED (10 min disappearance of contractions): extrapolated dose inducing 10 min of disappearance of the contractions, linear regression
Procedure: Female Sprague Dawley rats weighing 225-275 g (Crl: CD° BR, Charles River Italia) were used. The animals were housed with free access to food and water and were maintained on a forced 12 h alternating light-dark cycle at 22-24°C for at least one week, except during the experiment. The activity on the rhythmic bladder voiding contractions was evaluated according to the method of Dray (J. Pharmcol. Methods, 13:157, 1985), with some modifications as in Guarneri (Phannacol. Res., 27:173, 1993). […] The catheter was tied in place with a ligature around the external urethral orifice and was connected with conventional pressure transducers (Statham P23 ID/P23 XL). […] The bladder was then filled via the recording catheter by incremental volumes of warm (37°C) saline until reflex bladder voiding contractions occurred (usually 0.8-1.5 ml). Two parameters were recorded from the cystometrogram: the frequency of voiding contractions, calculated by counting the number of peaks/15 min of observation, and the mean amplitude of these contractions (mean height of the peaks in mmHg) in the same time period. For intravenous (i. v. ) injection of bioactive compounds, a PE 50 polyethylene tubing filled with physiological saline was inserted into the jugular vein.
Bioactivity was assessed in individual animals (using 6-10 rats per dose), by recording the number and height of the peaks for 15 min after drug injection and comparing them with those previously recorded for 15 min after the intravenous administration of vehicle alone. […] The statistical significance of changes in frequency and amplitude before and after treatment was assessed by Student's t test for paired data. Changes showing a probability P<0.01 were considered significant.
An all-or-none criterion was also used to compare bioactivity in terms of ED50 values. Rats showing a treatment-related change of ≥30% relative to the basal value were considered to be positive. Quantal dose-response curves and ED50 values were evaluated by the method of Bliss (J. Pharm. Pharmacol., 11:192, 1938).
The rapid distension of the urinary bladder in urethane-anaesthetized rats produced a series of rhythmic bladder voiding contractions whose characteristics have been described (Maggie et al., Brain Res., 380, 83, 1986; Maggi, et al., J. Pharmacol. Exp. Ther., 230, 500, 1984). The frequency of these contractions is related to the sensory afferent arm of reflex micturition and to the integrity of the micturition centre, while their amplitude is a property of the efferent arm of the reflex (Maggi et al., J. Pharmacol. Meth., 15, 157, 1986; Maggi et al., Brain Res.. 415, 1, 1987; Maggi et al., Naun. Schmied. Arch. Pharmacol., 332, 276, 1986; Maggi et al., J. Urol., 136, 696, 1986).

[1] = read-out: ED50 FREQUENCY (and 95% confidence limits), i.v., quantal criterion (change ≥30% relative to basal value)
[2] = i.v., inhibition of frequency of rhythmic bladder voidings (ED50)

## COc1ccccc1N1CCN(CCN(C(=O)C2CCCCC2)c2ccccn2)CC1 [Compound A, N-{2-[4-(2-methoxyphenyl)-1-piperazinyl]-ethyl}-N-(2-pyridyl)-cyclohexanecarboxamide]
1 µg/kg i.v. group
  AMPLITUDE mm Hg before treatment: 25.4±2.0 mm Hg
  FREQUENCY No. contr./15 min before treatment: 11.7±1.0 No. contr./15 min
1 µg/kg i.v.
  AMPLITUDE mm Hg after treatment: 23.1±1.9 mm Hg
  BLADDER CONTRACTIONS Disappearance time: 1.34 min
  FREQUENCY No. contr./15 min after treatment: 11.6±1.3 No. contr./15 min
3 µg/kg i.v. group
  AMPLITUDE mm Hg before treatment: 25.1±2.2 mm Hg
  FREQUENCY No. contr./15 min before treatment: 11.5±0.7 No. contr./15 min
3 µg/kg i.v.
  AMPLITUDE mm Hg after treatment: 21.7±2.0 mm Hg
  BLADDER CONTRACTIONS Disappearance time: 2.15 min
  FREQUENCY No. contr./15 min after treatment: 9.1±1.0 No. contr./15 min
10 µg/kg i.v. group
  AMPLITUDE mm Hg before treatment: 26.0±3.8 mm Hg
  FREQUENCY No. contr./15 min before treatment: 11.5±1.5 No. contr./15 min
10 µg/kg i.v.
  AMPLITUDE mm Hg after treatment: 22.3±3.8 mm Hg
  BLADDER CONTRACTIONS Disappearance time: 8.13 min
  FREQUENCY No. contr./15 min after treatment: 5.9±1.6 No. contr./15 min
30 µg/kg i.v. group
  AMPLITUDE mm Hg before treatment: 28.5±2.5 mm Hg
  FREQUENCY No. contr./15 min before treatment: 11.8±0.7 No. contr./15 min
30 µg/kg i.v.
  AMPLITUDE mm Hg after treatment: 25.0±4.0 mm Hg
  BLADDER CONTRACTIONS Disappearance time: 8.87 min
  FREQUENCY No. contr./15 min after treatment: 3.8±0.7 No. contr./15 min
100 µg/kg i.v. group
  AMPLITUDE mm Hg before treatment: 28.0±4.6 mm Hg
  FREQUENCY No. contr./15 min before treatment: 12.0±0.9 No. contr./15 min
100 µg/kg i.v.
  AMPLITUDE mm Hg after treatment: 25.7±2.9 mm Hg
  BLADDER CONTRACTIONS Disappearance time: 12.56 min
  FREQUENCY No. contr./15 min after treatment: 4.1±1.1 No. contr./15 min
300 µg/kg i.v. group
  FREQUENCY No. contr./15 min before treatment: 9.5±0.6 No. contr./15 min
300 µg/kg i.v.
  BLADDER CONTRACTIONS Disappearance time: 13.37 min
  FREQUENCY No. contr./15 min after treatment: 2.2±0.5 No. contr./15 min
  ED (10 min disappearance of contractions): 0.037 mg/kg
i.v., no dose-dependence observed
  maximal change of amplitude of the rhythmic bladder voidings: about 13%

## O=C(C1CCCCC1)N(CCN1CCN(c2cccc3[nH]ccc23)CC1)c1ccccn1 [Compound B, N-{2-[4-(4-Indolyl)-1-piperazinyl]-ethyl}-N-(2-pyridyl)-cyclohexanecarboxamide]
0.3 µg/kg i.v. group
  AMPLITUDE mm Hg before treatment: 31.0±3.7 mm Hg
  FREQUENCY No. contr./15 min before treatment: 10.7±1.4 No. contr./15 min
0.3 µg/kg i.v.
  AMPLITUDE mm Hg after treatment: 27.7±4.1 mm Hg
  BLADDER CONTRACTIONS Disappearance time: 1.10 min
  FREQUENCY No. contr./15 min after treatment: 11.3±1.7 No. contr./15 min
1 µg/kg i.v. group
  AMPLITUDE mm Hg before treatment: 26.5±4.3 mm Hg
  FREQUENCY No. contr./15 min before treatment: 11.7±1.5 No. contr./15 min
1 µg/kg i.v.
  AMPLITUDE mm Hg after treatment: 22.7±5.1 mm Hg
  BLADDER CONTRACTIONS Disappearance time: 4.33 min
  FREQUENCY No. contr./15 min after treatment: 8.7±1.3 No. contr./15 min
3 µg/kg i.v. group
  AMPLITUDE mm Hg before treatment: 33.7±2.4 mm Hg
  FREQUENCY No. contr./15 min before treatment: 9.7±0.8 No. contr./15 min
3 µg/kg i.v.
  AMPLITUDE mm Hg after treatment: 25.3±1.2 mm Hg
  BLADDER CONTRACTIONS Disappearance time: 7.58 min
  FREQUENCY No. contr./15 min after treatment: 4.7±1.1 No. contr./15 min
10 µg/kg i.v. group
  AMPLITUDE mm Hg before treatment: 19.0 mm Hg
  FREQUENCY No. contr./15 min before treatment: 11.7±1.7 No. contr./15 min
10 µg/kg i.v.
  AMPLITUDE mm Hg after treatment: 17.0 mm Hg
  BLADDER CONTRACTIONS Disappearance time: 10.00 min
  FREQUENCY No. contr./15 min after treatment: 4.2±0.9 No. contr./15 min
30 µg/kg i.v. group
  FREQUENCY No. contr./15 min before treatment: 12.0±1.1 No. contr./15 min
30 µg/kg i.v.
  BLADDER CONTRACTIONS Disappearance time: 8.85 min
  FREQUENCY No. contr./15 min after treatment: 4.5±1.4 No. contr./15 min
  ED (10 min disappearance of contractions): 0.009 mg/kg
[1]
  ED50: 0.001 mg/kg
[2]
  fold more active than NAN-190: 46 fold
  fold more active than flavoxate: 2650 fold

## COc1ccccc1N1CCN(CCCCN2C(=O)c3ccccc3C2=O)CC1 [NAN-190, 1-(2-methoxyphenyl)-4-[4-(2-phthalimido)-butyl]-piperazine]
30 µg/kg i.v. group
  AMPLITUDE mm Hg before treatment: 30.2±3.7 mm Hg
  FREQUENCY No. contr./15 min before treatment: 13.5±1.2 No. contr./15 min
30 µg/kg i.v.
  AMPLITUDE mm Hg after treatment: 26.1±3.1 mm Hg
  BLADDER CONTRACTIONS Disappearance time: 1.80 min
  FREQUENCY No. contr./15 min after treatment: 11.8±1.5 No. contr./15 min
100 µg/kg i.v. group
  AMPLITUDE mm Hg before treatment: 22.5±1.7 mm Hg
  FREQUENCY No. contr./15 min before treatment: 13.6±1.0 No. contr./15 min
100 µg/kg i.v.
  AMPLITUDE mm Hg after treatment: 17.3±2.9 mm Hg
  BLADDER CONTRACTIONS Disappearance time: 6.34 min
  FREQUENCY No. contr./15 min after treatment: 6.4±1.1 No. contr./15 min
300 µg/kg i.v. group
  AMPLITUDE mm Hg before treatment: 24.1±1.8 mm Hg
  FREQUENCY No. contr./15 min before treatment: 11.8±1.1 No. contr./15 min
300 µg/kg i.v.
  AMPLITUDE mm Hg after treatment: 17.6±1.7 mm Hg
  BLADDER CONTRACTIONS Disappearance time: 5.47 min
  FREQUENCY No. contr./15 min after treatment: 6.6±1.1 No. contr./15 min
  ED (10 min disappearance of contractions): > 0.3 mg/kg
[1]
  ED50: 0.046 mg/kg

## CCN(CC)CC#CCOC(=O)C(O)(c1ccccc1)C1CCCCC1 (centres unmarked) [Oxybutynin, oxybutynin]
30 µg/kg i.v. group
  AMPLITUDE mm Hg before treatment: 26.7±2.7 mm Hg
  FREQUENCY No. contr./15 min before treatment: 14.8±1.9 No. contr./15 min
30 µg/kg i.v.
  AMPLITUDE mm Hg after treatment: 23.3±2.5 mm Hg
  FREQUENCY No. contr./15 min after treatment: 15.5±2.3 No. contr./15 min
100 µg/kg i.v. group
  AMPLITUDE mm Hg before treatment: 25.0±3.7 mm Hg
  FREQUENCY No. contr./15 min before treatment: 13.3±1.1 No. contr./15 min
100 µg/kg i.v.
  AMPLITUDE mm Hg after treatment: 18.7±2.7 mm Hg
  FREQUENCY No. contr./15 min after treatment: 14.7±1.0 No. contr./15 min
300 µg/kg i.v. group
  AMPLITUDE mm Hg before treatment: 20.9±1.7 mm Hg
  FREQUENCY No. contr./15 min before treatment: 10.1±0.7 No. contr./15 min
300 µg/kg i.v.
  AMPLITUDE mm Hg after treatment: 13.6±0.8 mm Hg
  FREQUENCY No. contr./15 min after treatment: 8.8±0.8 No. contr./15 min
1000 µg/kg i.v. group
  AMPLITUDE mm Hg before treatment: 20.3±2.4 mm Hg
  FREQUENCY No. contr./15 min before treatment: 9.7±0.8 No. contr./15 min
1000 µg/kg i.v.
  AMPLITUDE mm Hg after treatment: 11.8±1.2 mm Hg
  FREQUENCY No. contr./15 min after treatment: 9.5±0.8 No. contr./15 min
3000 µg/kg i.v. group
  AMPLITUDE mm Hg before treatment: 18.0±1.4 mm Hg
  FREQUENCY No. contr./15 min before treatment: 10.0±0.7 No. contr./15 min
3000 µg/kg i.v.
  AMPLITUDE mm Hg after treatment: 10.8±1.0 mm Hg
  FREQUENCY No. contr./15 min after treatment: 9.9±1.5 No. contr./15 min
read-out: ED50 AMPLITUDE (and 95% confidence limits)
  ED50: 0.24 mg/kg

From EP0906100B1, “USE OF 5-HT 1A? RECEPTOR ANTAGONISTS FOR THE TREATMENT OF URINARY INCONTINENCE” (RECORDATI S.A., priority 1996, dated 1997)
